Data published in patent US20040044046A1, “Stability of lipoic acid” (priority 2002, published 2004).
Values belong to the compound of their own block, whether it stands above or below them.

Experiments:
[1] = reduced form with two -SH groups; cited from earlier work
[2] = can degrade under some warehousing conditions; cited from earlier work
[3] = Storage stability of the nicotinamide lipoate crystalline powder, followed by repeated infrared spectrophotometry; format: physicochemical
Description: A small quantity of the powder as a mineral oil mull spread was spread on NaCl polished crystal plates. The plate was placed in a Beckman Infrared Spectrophotometer AccuLab 2 grating machine, linear in wave number.

Compound: O=C(O)CCCC[C@@H](S)CCS (racemic) [DHLA, dihydrolipoate]
Oxidation potential [1]: −0.29 V

Compound: O=C(O)CCCC[C@@H]1CCSS1 [R-LA, R-α-lipoic acid]
Temperature above which unstable [2]: above 40 °C

Change in crystal form or chemical composition on standing ([3]; ambient conditions (light and temperature) for over a year): essentially no change | Infrared spectrum on repeat spectrophotometry compared with initial spectrum ([3]; mineral oil mull on NaCl plates, repeated at about 3 and 17 months, ambient conditions (light and temperature)): essentially the same
Compound: NC(=O)c1cccnc1.O=C(O)CCCCC1CCSS1 (stereo not shown) [Example 1]
